Measured values: patent publication EP0656355A1, “BIPHENYLMETHANE DERIVATIVE AND MEDICINE CONTAINING THE SAME” (WAKUNAGA SEIYAKU KABUSHIKI KAISHA, priority 1992, dated 1994)

How the values were obtained:
[1] = biological target: T1, angiotensin II (AII) receptor (Rattus norvegicus, UniProt P25095); test: Inhibitory action against the binding with angiotensin II (AII) receptor, 125I-AII competition on cultured rat aortic smooth muscle cells; design: species or system male Wistar rat; conditions: 50% substitution of ¹²⁵I-AII specific binding; ¹²⁵I-AII 2 x 10⁻¹⁰M; one hour at room temperature; rat vascular smooth muscle cells; read-out: IC₅₀
T1 construct: Vascular smooth muscle cells, which had been separated from the aorta of a male Wistar rat and cultured on a 24-well multiplate; endogenous in cells; host or cells: primary cultured vascular smooth muscle cells from the aorta of a male Wistar rat
T1 sequence (P25095 1-359): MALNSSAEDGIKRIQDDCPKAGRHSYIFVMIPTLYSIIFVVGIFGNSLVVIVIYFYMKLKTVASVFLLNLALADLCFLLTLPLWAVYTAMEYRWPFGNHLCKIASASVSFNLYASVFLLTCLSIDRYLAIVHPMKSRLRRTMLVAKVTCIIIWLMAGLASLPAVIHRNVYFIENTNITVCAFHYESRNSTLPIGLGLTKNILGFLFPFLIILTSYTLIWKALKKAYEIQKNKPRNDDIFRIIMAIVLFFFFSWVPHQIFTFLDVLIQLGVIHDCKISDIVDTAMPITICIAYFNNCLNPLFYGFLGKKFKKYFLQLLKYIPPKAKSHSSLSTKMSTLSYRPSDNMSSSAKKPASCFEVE
Experimental: (1) Inhibitory action against the binding with angiotensin II (AII) receptor, using cultured rat aortic smooth muscle cells The present test was conducted in accordance with the method reported by Chiu et al. in European Journal of Pharmacology, 157, 13-21(1988), though after some modifications. […] To each well, ¹²⁵I-AII (final concentration: 2 x 10⁻¹⁰M) was added together with or without a test compound to give a total volume of 0.2 mℓ. Then the wells were incubated for one hour at room temperature to make the ¹²⁵I-AII and the test compound competitively bind to the vascular smooth muscle cells. Each well was thereafter washed with an ice-cold buffer three times to remove unbound ¹²⁵I-AII. To the cells, 0.2 mℓ of a 1 mol/ℓ solution of sodium hydroxide was added to solubilize the bound ¹²⁵I-AII. A bound amount of ¹²⁵I-AII contained in the resulting cell solution was measured by a gamma counter. The above test was conducted for each compound at different concentrations of 3 doses or more. The inhibition rate against the specific binding with ¹²⁵I-AII at each concentration was calculated in accordance with an equation to be set out subsequently herein.

[2] = system: angiotensin II contraction in longitudinal ileac muscles; test: Inhibitory activity to angiotensin II contraction in longitudinal ileac muscles excised from a guinea pig; format: cell-based, Hartley male guinea pig; conditions: Cavia porcellus, 20 min; 50% contraction inhibition concentration; 10⁻⁸M angiotensin II; test compound reacted for 20 minutes; guinea pig ileum longitudinal muscle; read-out: IC₅₀
Experimental: (2) Inhibitory activity to angiotensin II contraction in longitudinal ileac muscles excised from a guinea pig
A Hartley male guinea pig (350-450 g in weight) was sacrificed under exsanguination, followed by the excision of its ileum.
A longitudinal muscle tissue (2 cm long) was prepared from the ileum in a manner known per se in the art. The sample was suspended in a 20-mℓ Magnus cylinder filled with a Tylode solution [composition (mM): NaCℓ 137, KCℓ 2.7, CaCℓ₂ 1.88, MgCℓ₂ 1.1, NaH₂PO₄ 0.4, NaH₂CO₃ 11.8 and glucose 5.6). The Tylode solution was incubated at 37°C and saturated with a mixed gas consisting of 95% O₂ + 5% CO₂. Using an isometric transducer ("TB-611T", manufactured by Nihon Kohden Corporation), variations in contraction were measured. The measurement results were recorded on a computer ("PC-9801", manufactured by NEC Corporation).
Under a load of 0.5 g initial tension, the longitudinal muscle sample was equilibrated in a nutrient solution for about one hour while being washed therewith at intervals of 15 minutes. Then, contracture by the administration of 80 mM of KCℓ was repeated twice. After conforming that the contraction occurred stably, the following test was conducted.
First, 10^-8M angiotensin II was administered to the sample and its maximum contraction was recorded. The test compound was then administered to the sample and they were reacted for 20 minutes. Administered again was 10⁻⁸M angiotensin II and the maximum contraction was measured. […] This test was repeated at increased concentrations of the test compound. A 50% contraction inhibition concentration (IC₅₀) was determined in accordance with a linear regressive calculation of the contraction inhibition rates.

Structure (SMILES)	IC50 [1]	IC50 [2]
CCc1nn(Cc2ccc(-c3ccccc3-c3nnn[nH]3)cc2)c(=NC(=O)C2CC2)s1 [Compound No.19, 2-Cyclopropylcarbonylimino-5-ethyl-3-[2'-(1H-tetrazol-5-yl)biphenyl-4-yl]methyl-1,3,4-thiadiazoline]	15 nM	–
CCc1nn(Cc2ccc(-c3ccccc3-c3nnn[nH]3)cc2)c(=NC(=O)c2ccccc2Cl)s1 [Compound No.68, 2-(2-Chlorobenzoyl)imino-5-ethyl-3-[2'-(1H-tetrazol-5-yl)biphenyl-4-yl]methyl-1,3,4-thiadiazoline]	5.7 nM	–
O=C(O)c1ccccc1C(=O)N=c1sc(C2CC2)nn1Cc1ccc(-c2ccccc2-c2nnn[nH]2)cc1 [Compound No.137, N-[5-Cyclopropyl-3-[2'-(1H-tetrazol-5-yl)biphenyl-4-yl]methyl-1,3,4-thiadiazoline-2-yliden]phthalamic acid]	–	0.9 nM
CCc1nn(Cc2ccc(-c3ccccc3-c3nnn[nH]3)cc2)c(=NC(=O)c2c(F)ccc(F)c2C(=O)O)s1 [Compound No.139, 3,6-Difluoro-N-[5-Ethyl-3-[2'-(1H-tetrazol-5-yl)biphenyl-4-yl]methyl-1,3,4-thiadiazoline-2-yliden] phthalamic acid]	–	7.4 nM
CCCCC(=O)N=c1sc(CC)nn1Cc1ccc(-c2ccccc2-c2nnn[nH]2)cc1 [Compound No.31, 2-Valerylimino-5-ethyl-3-[2'-(1H-tetrazol-5-yl)biphenyl-4-yl]methyl-1,3,4-thiadiazoline]	17 nM	–
CCCCc1nn(Cc2ccc(-c3ccccc3-c3nnn[nH]3)cc2)c(=NC(=O)CC)s1 [Compound No.7, 2-Propionylimino-5-n-butyl-3-[2'-(1H-tetrazol-5-yl)biphenyl-4-yl]methyl-1,3,4-thiadiazoline]	6.8 nM	21 nM
CCCC(=O)N=c1sc(CC)nn1Cc1ccc(-c2ccccc2-c2nnn[nH]2)cc1 [Compound No.1, 2-Butyrylimino-5-ethyl-3-[2'-(1H-tetrazol-5-yl)biphenyl-4-yl]methyl-1,3,4-thiadiazoline]	8 nM	23 nM
CCCc1sc(=NC(=O)C2CC2)n(Cc2ccc(-c3ccccc3-c3nnn[nH]3)cc2)c1C(=O)O [Compound No.244, 2-Cyclopropylcarbonylimino-3-[2'-(1H-tetrazol-5-yl)biphenyl-4-yl]methyl-5-n-propylthiazoline-4-carboxylic acid]	–	0.76 nM
CCCCC(=O)N(Cc1ccc(-c2ccccc2-c2nn[nH]n2)cc1)c1nnc(C)s1 [Compound No.30, 2-[N-Valeryl-N-(2'-(1H-tetrazol-5-yl)biphenyl-4-yl)methyl]amino-5-methyl-1,3,4-thiadiazole]	–	29 nM
O=C(N=c1sc(C2CC2)nn1Cc1ccc(-c2ccccc2-c2nn[nH]n2)cc1)C1CC1 [Compound No.23, 2-Cyclopropylcarbonylimino-5-cyclopropyl-3-[2'-(1H-tetrtazol-5-yl)biphenyl-4-yl]methyl-1,3,4-thiadiazoline]	31 nM	–
O=C(O)C1=C(C(=O)N=c2sc(C3CC3)nn2Cc2ccc(-c3ccccc3-c3nn[nH]n3)cc2)CCC1 [Compound No.132, 2-[[5-Cyclopropyl-3-[2'-(1H-tetrazol-5-yl)biphenyl-4-yl]methyl-1,3,4-thiadiazoline-2-yliden]aminocarbonyl]-1-cyclopetenecarboxylic acid]	–	0.4 nM
CCCC(=O)N=c1sc(C2CC2)nn1Cc1ccc(-c2ccccc2-c2nnn[nH]2)cc1 [Compound No.11, 2-Butyrylimino-5-cyclopropyl-3-[2'-(1H-tetrazol-5-yl)biphenyl-4-yl]methyl-1,3,4-thiadiazoline]	6.5 nM	26 nM
O=C(N=c1sc(-c2ccccc2)nn1Cc1ccc(-c2ccccc2-c2nnn[nH]2)cc1)C1CC1 [Compound No.27, 2-Cyclopropylcarbonylimino-5-phenyl-3-[2'-(1H-tetrazol-5-yl)biphenyl-4-yl]methyl-1,3,4-thiadiazoline]	–	10 nM
CCCCc1nn(Cc2ccc(-c3ccccc3-c3nnn[nH]3)cc2)c(=NC(=O)CCC)s1 [Compound No.13, 2-Butyrylimino-5-n-butyl-3-[2'-(1H-tetrazol-5-yl)biphenyl-4-yl]methyl-1,3,4-thiadiazoline]	14 nM	24 nM
CCc1nn(Cc2ccc(-c3ccccc3-c3nnn[nH]3)cc2)c(=NC(=O)c2cscc2C(=O)O)s1 [Compound No.143, 4-[[5-Ethyl-3-[2'-(1H-tetrazol-5-yl)biphenyl-4-yl]methyl-1,3,4-thiadiazoline-2-yliden]aminocarbonyl] thiophene-3-carboxylic acid]	–	0.64 nM
CCc1nn(Cc2ccc(-c3ccccc3-c3nnn[nH]3)cc2)c(=NC(=O)C(F)(F)F)s1 [Compound No.50, 2-Trifluoroacetylimino-5-ethyl-3-[2'-(1H-tetrazol-5-yl)biphenyl-4-yl]methyl-1,3,4-thiadiazoline]	–	4.9 nM
CCCCc1nnc(N(Cc2ccc(-c3ccccc3-c3nn[nH]n3)cc2)C(=O)CCC)s1 [Compound No.14, 2-[N-Butyryl-N-(2'-(1H-tetrazol-5-yl)biphenyl-4-yl)methyl]amino-5-n-butyl-1,3,4-thiadiazole]	9.8 nM	36 nM
CCCCc1sc(=NC(=O)C2CC2)n(Cc2ccc(-c3ccccc3-c3nnn[nH]3)cc2)c1C(=O)O [Compound No.245, 2-Cyclopropylcarbonylimino-3-[2'-(1H-tetrazol-5-yl)biphenyl-4-yl]methyl-5-n-butylthiazoline-4-carboxylic acid]	–	0.35 nM
CCCC(=O)N(Cc1ccc(-c2ccccc2-c2nn[nH]n2)cc1)c1nnc(C2CC2)s1 [Compound No.12, 2-[N-Butyryl-N-(2'-(1H-tetrazol-5-yl)biphenyl-4-yl)methyl]amino-5-cyclopropyl-1,3,4-thiadiazole]	32 nM	28 nM
CCCCC(=O)N(Cc1ccc(-c2ccccc2-c2nn[nH]n2)cc1)c1nnc(C2CC2)s1 [Compound No.34, 2-[N-Valeryl-N-(2'-(1H-tetrazol-5-yl)biphenyl-4-yl)methyl]amino-5-cyclopropyl-1,3,4-thiadiazole]	10 nM	–
CCCc1nn(Cc2ccc(-c3ccccc3-c3nnn[nH]3)cc2)c(=NC(=O)C2=C(C(=O)O)CCC2)s1 [Compound No.131, 2-[[5-n-Propyl-3-[2'-(1H-tetrazol-5-yl)biphenyl-4-yl]methyl-1,3,4-thiadiazoline-2-yliden]aminocarbonyl]-1-cyclopenten carboxylic acid]	–	0.84 nM
CCc1nn(Cc2ccc(-c3ccccc3-c3nnn[nH]3)cc2)c(=NS(=O)(=O)c2ccccc2C(=O)OC)s1 [Compound No.151, 2-[[5-Ethyl-3-[2'-(1H-tetrazol-5-yl)biphenyl-4-yl]methyl-1,3,4-thiadiazoline-2-yliden]aminosulfonyl]benzoic acid methyl ester]	–	0.8 nM
CCCC(=O)N(Cc1ccc(-c2ccccc2-c2nn[nH]n2)cc1)c1nnc(CC)s1 [Compound No.2, 2-[N-Butyryl-N-(2'-(1H-tetrazol-5-yl)biphenyl-4-yl)methyl]amino-5-ethyl-1,3,4-thiadiazole]	13 nM	11 nM
